One experiment has as its target WT EGFR (Homo sapiens, UniProt P00533). The settings on record: read-out: IC50 values; Ba/F3 cells expressing WT EGFR (+10 ng/ml EGF), 72 hours.
In another experiment the target is EGFR L858R T790M L792H (Homo sapiens, UniProt P00533, L792H/L858R/T790M). Kind of experiment: Ba/F3 cell viability, Cell Titer Glo. The following applies: read-out: IC50 Values; Ba/F3 cells expressing EGFR L858R T790M L792H, 72 hours. Background: In ATP-based viability assays light output follows the ATP content of the culture.
Another experiment concerns the target EGFR L858R T790M/C797S (Homo sapiens, UniProt P00533, C797S/L858R/T790M). Kind of experiment: Ba/F3 cell viability, Cell Titer Glo. The following applies: read-out: IC50 Values; Ba/F3 cells expressing EGFR L858R T790M/C797S, 72 hours.
The target of another experiment is EGFR Ex19del T790M C797S (Homo sapiens, UniProt P00533, C797S/DEL746-750/T790M). Kind of experiment: Ba/F3 cell viability, Cell Titer Glo. The following applies: read-out: IC50 Values; Ba/F3 cells expressing EGFR Ex19del T790M C797S, 72 hours.
A further experiment concerns the target EGFR L858R/T790M/L718Q (Homo sapiens, UniProt P00533, L718Q/L858R/T790M). Briefly: Ba/F3 cell viability, Cell Titer Glo. The following applies: read-out: IC50 Values; Ba/F3 cells expressing EGFR L858R/T790M/L718Q, 72 hours.
A further experiment concerns the target EGFR L718Q T790M (Homo sapiens, UniProt P00533, L718Q/T790M). Kind of experiment: Ba/F3 cell viability, Cell Titer Glo. The following applies: read-out: IC50 Values; Ba/F3 cells expressing EGFR L718Q T790M, 72 hours.
Another experiment deals with EGFR L858R T790M L718V (Homo sapiens, UniProt P00533, L718V/L858R/T790M). Briefly: Ba/F3 cell viability, Cell Titer Glo. The following applies: read-out: IC50 Values; Ba/F3 cells expressing EGFR L858R T790M L718V, 72 hours.
A further experiment addresses EGFR Ex19delT790M L718V (Homo sapiens, UniProt P00533, DEL746-750/L718V/T790M). Kind of experiment: Ba/F3 cell viability, Cell Titer Glo. The following applies: read-out: IC50 Values; Ba/F3 cells expressing EGFR Ex19delT790M L718V, 72 hours.
A further experiment deals with EGFR Ex19del/T790M/L792H (Homo sapiens, UniProt P00533, DEL746-750/L792H/T790M). Kind of experiment: Ba/F3 cell viability, Cell Titer Glo. The following applies: read-out: IC50 Values; Ba/F3 cells expressing EGFR Ex19del/T790M/L792H, 72 hours.
In the next experiment the target is EGFR G724S T790M (Homo sapiens, UniProt P00533, G724S/T790M). Briefly: Ba/F3 cell viability, Cell Titer Glo. The settings on record: read-out: IC50 Values; Ba/F3 cells expressing EGFR G724S T790M, 72 hours.
A further experiment concerns the target EGFR T790M (Homo sapiens, UniProt P00533, T790M). Kind of experiment: Ba/F3 cell viability, Cell Titer Glo. The settings on record: read-out: IC50 Values; Ba/F3 cells expressing EGFR T790M, 72 hours.
The next experiment concerns the target EGFR Ex19del/T790M/G724S (Homo sapiens, UniProt P00533, DEL746-750/G724S/T790M). Kind of experiment: Ba/F3 cell viability, Cell Titer Glo. The following applies: read-out: IC50 Values; Ba/F3 cells expressing EGFR Ex19del/T790M/G724S, 72 hours.
A further experiment concerns the target EGFR L858R T790M V843I (Homo sapiens, UniProt P00533, L858R/T790M/V843I). Kind of experiment: Ba/F3 cell viability, Cell Titer Glo. The following applies: read-out: IC50 Values; Ba/F3 cells expressing EGFR L858R T790M V843I, 72 hours.
The target of a further experiment is EGFR L858R/T790M (Homo sapiens, UniProt P00533, L858R/T790M). Briefly: Ba/F3 cell viability, Cell Titer Glo. The following applies: read-out: IC50 Values; Ba/F3 cells expressing EGFR L858R/T790M, 72 hours.
The target of the next experiment is EGFR S768I/T790M (Homo sapiens, UniProt P00533, S768I/T790M). Briefly: Ba/F3 cell viability, Cell Titer Glo. The settings on record: read-out: IC50 Values; Ba/F3 cells expressing EGFR S768I/T790M, 72 hours.
Another experiment deals with EGFR G719A T790M (Homo sapiens, UniProt P00533, G719A/T790M). Kind of experiment: Ba/F3 cell viability, Cell Titer Glo. The settings on record: read-out: IC50 Values; Ba/F3 cells expressing EGFR G719A T790M, 72 hours.
The target in a further experiment is EGFR Ex19delT790M (Homo sapiens, UniProt P00533, DEL746-750/T790M). Kind of experiment: Ba/F3 cell viability, Cell Titer Glo. The settings on record: read-out: IC50 Values; Ba/F3 cells expressing EGFR Ex19delT790M, 72 hours.

Each structure is given as a SMILES string.

Sequence of EGFR Ex19del/T790M/L792H (P00533 with tags, fused parts or gaps DEL746-750/T790M/L792H): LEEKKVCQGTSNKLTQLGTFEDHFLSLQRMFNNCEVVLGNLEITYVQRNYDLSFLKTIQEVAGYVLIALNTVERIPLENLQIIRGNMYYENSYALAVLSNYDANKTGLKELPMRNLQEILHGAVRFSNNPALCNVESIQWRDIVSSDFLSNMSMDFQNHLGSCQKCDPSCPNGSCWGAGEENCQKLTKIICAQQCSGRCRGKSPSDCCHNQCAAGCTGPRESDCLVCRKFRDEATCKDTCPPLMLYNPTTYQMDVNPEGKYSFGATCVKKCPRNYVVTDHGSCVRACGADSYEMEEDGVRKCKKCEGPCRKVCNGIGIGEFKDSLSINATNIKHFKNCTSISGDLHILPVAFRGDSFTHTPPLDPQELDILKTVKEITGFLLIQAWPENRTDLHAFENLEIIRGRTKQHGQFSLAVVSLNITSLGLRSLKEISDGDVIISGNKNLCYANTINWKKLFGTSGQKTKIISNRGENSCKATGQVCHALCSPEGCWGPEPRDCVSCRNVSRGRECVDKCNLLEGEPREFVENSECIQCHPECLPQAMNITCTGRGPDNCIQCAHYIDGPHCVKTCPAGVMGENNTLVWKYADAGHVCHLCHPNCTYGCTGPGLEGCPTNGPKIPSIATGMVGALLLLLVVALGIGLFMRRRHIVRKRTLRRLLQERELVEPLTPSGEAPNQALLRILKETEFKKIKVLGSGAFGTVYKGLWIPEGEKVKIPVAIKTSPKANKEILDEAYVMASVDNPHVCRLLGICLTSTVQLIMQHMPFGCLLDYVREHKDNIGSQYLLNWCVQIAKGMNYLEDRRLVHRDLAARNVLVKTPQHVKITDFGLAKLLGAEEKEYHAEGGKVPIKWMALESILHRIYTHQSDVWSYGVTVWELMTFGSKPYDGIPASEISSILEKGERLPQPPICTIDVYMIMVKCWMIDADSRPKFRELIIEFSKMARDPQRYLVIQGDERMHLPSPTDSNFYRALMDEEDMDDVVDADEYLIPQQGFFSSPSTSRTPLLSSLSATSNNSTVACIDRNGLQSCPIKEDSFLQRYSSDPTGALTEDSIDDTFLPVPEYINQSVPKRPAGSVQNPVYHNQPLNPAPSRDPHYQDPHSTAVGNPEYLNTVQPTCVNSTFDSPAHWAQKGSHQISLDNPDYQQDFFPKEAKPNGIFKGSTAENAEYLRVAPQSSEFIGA
Sequence of EGFR L858R T790M L792H (P00533 25-1210 T790M/L792H/L858R): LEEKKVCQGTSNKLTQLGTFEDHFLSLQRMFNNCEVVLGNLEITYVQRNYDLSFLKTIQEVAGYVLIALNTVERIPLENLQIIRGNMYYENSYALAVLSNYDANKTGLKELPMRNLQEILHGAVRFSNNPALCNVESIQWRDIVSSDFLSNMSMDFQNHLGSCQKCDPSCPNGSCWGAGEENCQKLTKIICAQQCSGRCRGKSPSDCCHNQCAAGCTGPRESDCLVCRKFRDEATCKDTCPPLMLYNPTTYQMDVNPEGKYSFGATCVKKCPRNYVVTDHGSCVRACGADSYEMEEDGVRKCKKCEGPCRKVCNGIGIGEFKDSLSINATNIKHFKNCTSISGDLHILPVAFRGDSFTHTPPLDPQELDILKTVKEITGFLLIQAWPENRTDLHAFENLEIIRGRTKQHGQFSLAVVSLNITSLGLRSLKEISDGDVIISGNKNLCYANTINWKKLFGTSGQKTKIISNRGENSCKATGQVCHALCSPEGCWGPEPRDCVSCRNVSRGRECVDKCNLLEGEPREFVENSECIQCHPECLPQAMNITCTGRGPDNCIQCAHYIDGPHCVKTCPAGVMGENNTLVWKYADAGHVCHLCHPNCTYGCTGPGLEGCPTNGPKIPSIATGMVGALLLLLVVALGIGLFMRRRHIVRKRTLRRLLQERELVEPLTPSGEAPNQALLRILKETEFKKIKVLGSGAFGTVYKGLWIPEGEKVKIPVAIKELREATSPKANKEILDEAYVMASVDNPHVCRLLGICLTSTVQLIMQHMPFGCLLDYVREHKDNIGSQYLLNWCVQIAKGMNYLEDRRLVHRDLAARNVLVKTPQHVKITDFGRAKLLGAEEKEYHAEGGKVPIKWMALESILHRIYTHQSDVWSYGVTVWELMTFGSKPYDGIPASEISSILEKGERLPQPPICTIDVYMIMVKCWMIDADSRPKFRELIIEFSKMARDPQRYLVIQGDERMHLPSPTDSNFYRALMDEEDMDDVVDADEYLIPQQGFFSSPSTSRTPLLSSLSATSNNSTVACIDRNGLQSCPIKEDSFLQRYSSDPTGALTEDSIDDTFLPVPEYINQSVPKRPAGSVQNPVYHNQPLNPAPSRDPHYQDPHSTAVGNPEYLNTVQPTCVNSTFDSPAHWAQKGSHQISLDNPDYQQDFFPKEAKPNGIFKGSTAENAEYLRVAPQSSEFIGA
Sequence of EGFR L858R/T790M/L718Q (P00533 25-1210 L718Q/T790M/L858R): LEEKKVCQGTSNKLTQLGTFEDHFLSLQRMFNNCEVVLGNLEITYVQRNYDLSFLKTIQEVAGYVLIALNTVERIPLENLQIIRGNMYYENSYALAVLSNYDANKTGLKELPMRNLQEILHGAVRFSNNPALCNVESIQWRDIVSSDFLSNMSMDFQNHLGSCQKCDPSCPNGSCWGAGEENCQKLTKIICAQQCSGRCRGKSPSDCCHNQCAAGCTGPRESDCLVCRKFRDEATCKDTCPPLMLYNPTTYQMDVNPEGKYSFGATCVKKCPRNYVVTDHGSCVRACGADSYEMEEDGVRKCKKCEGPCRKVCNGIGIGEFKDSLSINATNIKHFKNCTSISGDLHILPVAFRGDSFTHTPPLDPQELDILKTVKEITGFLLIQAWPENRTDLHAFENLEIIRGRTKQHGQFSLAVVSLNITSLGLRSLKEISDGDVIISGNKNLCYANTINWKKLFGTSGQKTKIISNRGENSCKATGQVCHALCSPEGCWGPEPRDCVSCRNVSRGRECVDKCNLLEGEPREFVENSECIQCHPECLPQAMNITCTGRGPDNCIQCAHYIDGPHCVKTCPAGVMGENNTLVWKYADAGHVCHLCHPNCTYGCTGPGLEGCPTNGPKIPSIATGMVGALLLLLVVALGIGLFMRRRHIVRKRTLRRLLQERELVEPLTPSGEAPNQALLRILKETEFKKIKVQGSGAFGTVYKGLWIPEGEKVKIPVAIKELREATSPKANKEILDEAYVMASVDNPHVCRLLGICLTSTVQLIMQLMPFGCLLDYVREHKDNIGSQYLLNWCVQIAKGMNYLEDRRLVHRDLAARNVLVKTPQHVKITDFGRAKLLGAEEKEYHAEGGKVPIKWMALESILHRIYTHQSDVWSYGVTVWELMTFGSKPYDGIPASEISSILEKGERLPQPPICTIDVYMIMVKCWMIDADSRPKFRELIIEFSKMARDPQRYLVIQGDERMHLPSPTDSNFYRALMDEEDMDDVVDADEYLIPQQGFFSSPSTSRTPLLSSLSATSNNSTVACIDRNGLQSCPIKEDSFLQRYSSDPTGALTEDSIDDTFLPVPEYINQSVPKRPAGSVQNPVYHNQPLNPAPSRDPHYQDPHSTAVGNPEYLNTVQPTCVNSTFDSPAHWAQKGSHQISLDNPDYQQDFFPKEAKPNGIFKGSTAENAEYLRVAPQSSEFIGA
Sequence of EGFR Ex19del T790M C797S (P00533 with tags, fused parts or gaps DEL746-750/T790M/C797S): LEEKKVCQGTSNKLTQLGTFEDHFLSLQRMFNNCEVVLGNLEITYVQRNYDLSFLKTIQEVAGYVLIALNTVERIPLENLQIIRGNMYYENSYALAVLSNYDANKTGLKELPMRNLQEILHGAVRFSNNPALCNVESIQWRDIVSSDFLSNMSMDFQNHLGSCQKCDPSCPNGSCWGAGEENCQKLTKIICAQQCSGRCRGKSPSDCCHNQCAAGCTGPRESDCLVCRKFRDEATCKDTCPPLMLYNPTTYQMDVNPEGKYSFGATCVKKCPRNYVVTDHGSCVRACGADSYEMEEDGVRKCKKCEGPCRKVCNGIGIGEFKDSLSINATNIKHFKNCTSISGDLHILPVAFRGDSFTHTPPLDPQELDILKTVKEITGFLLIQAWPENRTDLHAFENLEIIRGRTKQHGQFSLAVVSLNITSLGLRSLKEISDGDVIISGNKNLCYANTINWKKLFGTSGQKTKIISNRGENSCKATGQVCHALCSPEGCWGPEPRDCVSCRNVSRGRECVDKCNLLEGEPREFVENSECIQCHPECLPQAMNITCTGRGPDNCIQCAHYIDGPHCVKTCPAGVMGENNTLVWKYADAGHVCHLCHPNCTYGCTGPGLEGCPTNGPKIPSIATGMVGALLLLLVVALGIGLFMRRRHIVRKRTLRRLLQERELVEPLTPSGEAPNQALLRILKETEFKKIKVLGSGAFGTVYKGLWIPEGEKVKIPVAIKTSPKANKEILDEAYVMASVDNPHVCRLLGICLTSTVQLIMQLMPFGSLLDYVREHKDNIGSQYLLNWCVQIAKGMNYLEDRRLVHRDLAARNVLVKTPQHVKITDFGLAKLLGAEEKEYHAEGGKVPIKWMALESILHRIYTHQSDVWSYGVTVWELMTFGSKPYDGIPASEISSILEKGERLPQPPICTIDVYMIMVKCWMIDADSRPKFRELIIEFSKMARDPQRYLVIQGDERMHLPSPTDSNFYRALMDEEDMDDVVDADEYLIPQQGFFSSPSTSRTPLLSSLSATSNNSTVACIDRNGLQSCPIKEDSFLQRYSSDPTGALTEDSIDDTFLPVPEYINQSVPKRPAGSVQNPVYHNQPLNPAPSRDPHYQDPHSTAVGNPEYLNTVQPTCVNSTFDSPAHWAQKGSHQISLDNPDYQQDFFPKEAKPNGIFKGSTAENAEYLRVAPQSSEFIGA
Experimental for EGFR Ex19del T790M C797S: (§1) Cell viability was determined by the Cell Titer Glo assay.
(§2) Briefly, stable Ba/F3 cell lines were generated by retroviral transduction of Ba/F3 cell line for 12 hours. […] Three days after transduction, 2 μg/ml puromycin (Invitrogen) was added to the RPMI media. Cell lines were then grown in the absence of IL-3 for two weeks and cell viability was assessed every three days using the Cell Titer Glo assay (Progema).
(§3) Briefly, 2000-3000 cells per well were plated in 384-well plates (Greiner Bio-One) in technical triplicate. Cells were treated with seven different concentrations of tyrosine kinase inhibitors or vehicle alone at a final volume of 40 μL per well. After 3 days, 11 μL of Cell Titer Glo was added to each well. Plates were shaken for 15 minutes, and bioluminescence was determined using a FLUOstar OPTIMA multi-mode micro-plate reader (BMG LABTECH). Bioluminescence values were normalized to DMSO treated cells, and normalized values were plotted in GraphPad Prism using non-linear regression fit to normalized data with a variable slope.
Experimental for EGFR Ex19del/T790M/G724S: as §1, §3
Experimental for EGFR Ex19del/T790M/L792H: as §1, §2, §3
Experimental for EGFR Ex19delT790M L718V: as §1, §2, §3
Experimental for EGFR G719A T790M: as §1, §3
Experimental for EGFR G724S T790M: as §1, §2, §3
Experimental for EGFR L718Q T790M: as §1, §2, §3
Experimental for EGFR L858R T790M L718V: as §1, §2, §3
Experimental for EGFR L858R T790M L792H: as §1, §2, §3
Experimental for EGFR L858R T790M V843I: as §1, §2, §3
Experimental for EGFR L858R T790M/C797S: as §1, §2, §3
Experimental for EGFR L858R/T790M/L718Q: as §1, §2, §3
Experimental for EGFR S768I/T790M: as §1, §3
Experimental for EGFR T790M: as §1, §2, §3
Experimental for WT EGFR: as §1, §2, §3

Consider `COc1cc(N2CCC(N)CC2)ccc1Nc1ncc(Cl)c(-c2c[nH]c3ccccc23)n1` [AZD3463], for which the IC50 – broadly, the concentration needed to halve the response being measured – on WT EGFR is 1630 nM; at EGFR L858R T790M L792H it was 1550 nM; at EGFR L858R T790M/C797S, 1270 nM; at EGFR Ex19del T790M C797S, 1440 nM; at EGFR L858R/T790M/L718Q it was 1120 nM; at EGFR L718Q T790M, 1140 nM. For the same compound, the IC50 on EGFR L858R T790M L718V worked out at 662 nM; at EGFR Ex19delT790M L718V, 1340 nM; at EGFR Ex19del/T790M/L792H, 1090 nM; on EGFR G724S T790M it was 695 nM; on EGFR T790M it was 1270 nM; on EGFR Ex19del/T790M/G724S it was 1610 nM. The concentration for half-maximal inhibition (IC50) turned out to be 768 nM on EGFR L858R T790M V843I; 2400 nM at EGFR L858R/T790M; 1730 nM at EGFR S768I/T790M; 1340 nM on EGFR G719A T790M; 255 nM on EGFR Ex19delT790M.

The record behind these values is US20260240847A1, “COMPOUNDS WITH ANTI-TUMOR ACTIVITY AGAINST CANCER CELLS BEARING TYROSINE KINASE INHIBITOR RESISTANT EGFR MUTATIONS” (BOARD OF REGENTS, THE UNIVERSITY OF TEXAS SYSTEM, priority 2019, published 2026).
